Experimental findings from PMC9484059, “Integrated multi-omics analysis and microbial recombinant protein system reveal hydroxylation and glycosylation involving nevadensin biosynthesis in Lysionotus pauciflorus” (Microbial Cell Factories, 2022) are described below.

The term Km denotes the substrate concentration at which the rate is half of its maximum.

This assay concerns T1, LpUGT95.
T1 construct: cloned from cDNA into pMAL-c2x (MBP fusion vector), expressed in E. coli, purified recombinant
Put plainly: UPLC product formation, Hyper […] fit. Format: biochemical, Lysionotus pauciflorus. To be noted: 2 mM UDP-glucose as sugar donor, 10 mM DTT, 50 mM Tris-HCl pH 7.4, 30 °C, 30 min.

Consider `COc1ccc(-c2cc(=O)c3c(O)c(OC)c(O)c(OC)c3o2)cc1` [nevadensin, 5,7-dihydroxy-6,8,4'-trimethoxyflavone], for which the Km was determined as 596 µM.
